Results: BindingDB's records for patent US12226414 (Suzhou Zanrong Pharma, 2025)

Biological target: Serine/threonine-protein kinase ATR (Homo sapiens, UniProt Q13535)
Assay: ATR Biochemical Potency Assay
Experimental: ATR enzyme was made by ChemPartner (batch: CP-ATR-20161102-M2). 2× enzyme solutions were prepared in 1× kinase base buffer. 10 μl of 2× enzyme solution (final concentration: 2.5 nM) was added to each well of the 384-well assay plate containing 60 nl compound in each well. The plate was incubated at room temperature for 10 minutes. 2× peptide solutions were prepared with FAM-labeled peptide and ATP in the 1× kinase base buffer. 10 μl of 2× peptide solution was added to each well of the 384-well assay plate, which was incubated at 28° C. for 240 min. 40 μl of stop buffer was added to stop reaction. Data were collected by Caliper.

Serine/threonine-protein kinase ATR, sequence (Q13535 whole entry): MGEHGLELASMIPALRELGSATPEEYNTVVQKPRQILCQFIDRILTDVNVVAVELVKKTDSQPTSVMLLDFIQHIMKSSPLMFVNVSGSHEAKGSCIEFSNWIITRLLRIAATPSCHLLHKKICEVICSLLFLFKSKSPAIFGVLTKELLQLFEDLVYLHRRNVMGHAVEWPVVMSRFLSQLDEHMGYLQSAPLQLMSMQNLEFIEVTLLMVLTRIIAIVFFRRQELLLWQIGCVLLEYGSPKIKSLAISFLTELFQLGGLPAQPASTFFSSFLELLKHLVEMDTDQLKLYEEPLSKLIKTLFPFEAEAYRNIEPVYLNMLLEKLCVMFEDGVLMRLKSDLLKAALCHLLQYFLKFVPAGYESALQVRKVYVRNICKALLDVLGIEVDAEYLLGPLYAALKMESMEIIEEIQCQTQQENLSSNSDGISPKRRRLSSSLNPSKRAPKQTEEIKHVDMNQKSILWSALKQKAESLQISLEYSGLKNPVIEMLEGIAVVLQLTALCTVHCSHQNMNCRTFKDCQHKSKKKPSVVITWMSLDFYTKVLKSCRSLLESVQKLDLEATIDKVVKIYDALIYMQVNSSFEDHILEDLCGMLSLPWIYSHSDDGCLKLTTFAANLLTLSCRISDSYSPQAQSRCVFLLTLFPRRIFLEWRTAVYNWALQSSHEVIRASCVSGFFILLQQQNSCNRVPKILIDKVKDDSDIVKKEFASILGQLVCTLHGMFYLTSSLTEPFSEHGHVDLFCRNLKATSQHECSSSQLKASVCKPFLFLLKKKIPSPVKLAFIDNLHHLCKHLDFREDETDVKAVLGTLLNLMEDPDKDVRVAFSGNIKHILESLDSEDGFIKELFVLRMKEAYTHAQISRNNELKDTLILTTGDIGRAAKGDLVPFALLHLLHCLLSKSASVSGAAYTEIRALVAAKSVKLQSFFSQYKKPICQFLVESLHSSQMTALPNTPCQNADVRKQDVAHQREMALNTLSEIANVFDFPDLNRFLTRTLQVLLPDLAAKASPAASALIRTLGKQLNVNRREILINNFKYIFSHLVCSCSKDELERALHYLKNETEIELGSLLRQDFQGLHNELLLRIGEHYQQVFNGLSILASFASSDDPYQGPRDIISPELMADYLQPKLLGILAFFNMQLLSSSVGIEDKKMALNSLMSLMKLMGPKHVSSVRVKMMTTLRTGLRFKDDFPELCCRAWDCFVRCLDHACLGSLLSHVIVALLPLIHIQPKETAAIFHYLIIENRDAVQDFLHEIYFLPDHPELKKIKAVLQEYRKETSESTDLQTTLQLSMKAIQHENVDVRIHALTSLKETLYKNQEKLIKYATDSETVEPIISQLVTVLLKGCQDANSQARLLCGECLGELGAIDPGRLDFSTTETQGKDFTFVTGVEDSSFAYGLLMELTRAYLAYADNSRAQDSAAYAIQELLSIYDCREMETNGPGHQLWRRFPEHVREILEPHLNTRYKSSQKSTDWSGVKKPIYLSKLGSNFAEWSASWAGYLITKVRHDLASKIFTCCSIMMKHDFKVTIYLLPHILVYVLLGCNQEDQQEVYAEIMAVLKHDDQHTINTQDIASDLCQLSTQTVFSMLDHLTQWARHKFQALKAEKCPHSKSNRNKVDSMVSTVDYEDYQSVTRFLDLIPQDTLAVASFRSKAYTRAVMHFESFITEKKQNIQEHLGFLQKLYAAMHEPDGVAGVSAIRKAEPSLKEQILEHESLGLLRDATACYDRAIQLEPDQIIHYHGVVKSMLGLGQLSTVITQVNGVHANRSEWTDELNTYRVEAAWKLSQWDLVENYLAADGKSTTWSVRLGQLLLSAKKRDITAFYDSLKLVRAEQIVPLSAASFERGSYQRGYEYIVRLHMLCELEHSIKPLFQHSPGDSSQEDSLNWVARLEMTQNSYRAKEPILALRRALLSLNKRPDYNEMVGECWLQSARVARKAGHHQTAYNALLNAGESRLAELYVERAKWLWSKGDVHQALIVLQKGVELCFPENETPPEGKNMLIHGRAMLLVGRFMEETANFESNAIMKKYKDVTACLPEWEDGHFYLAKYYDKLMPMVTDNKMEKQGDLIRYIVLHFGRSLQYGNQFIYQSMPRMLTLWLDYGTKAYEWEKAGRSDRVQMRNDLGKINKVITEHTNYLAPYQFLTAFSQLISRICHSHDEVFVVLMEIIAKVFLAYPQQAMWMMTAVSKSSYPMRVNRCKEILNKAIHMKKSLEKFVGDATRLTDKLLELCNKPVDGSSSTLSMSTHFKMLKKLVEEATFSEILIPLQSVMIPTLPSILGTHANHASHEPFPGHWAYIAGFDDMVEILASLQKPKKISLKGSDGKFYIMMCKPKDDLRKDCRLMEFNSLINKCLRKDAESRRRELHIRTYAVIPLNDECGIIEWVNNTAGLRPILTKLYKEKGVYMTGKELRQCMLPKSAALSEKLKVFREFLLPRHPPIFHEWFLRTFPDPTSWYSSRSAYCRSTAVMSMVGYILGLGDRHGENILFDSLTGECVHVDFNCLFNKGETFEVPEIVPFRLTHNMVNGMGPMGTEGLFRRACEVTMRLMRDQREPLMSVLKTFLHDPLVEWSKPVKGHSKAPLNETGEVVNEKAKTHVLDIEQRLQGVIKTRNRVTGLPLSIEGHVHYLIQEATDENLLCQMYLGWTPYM

| Structure (SMILES) | IC50 |
| --- | --- |
| CC(C)n1c(=O)n(C)c2nnc3cc(F)c(-c4ccc(OCCCN5CC[C@H](F)C5)nc4)cc3c21 [US12226414, Example 14] | > 10 µM |
| CC(C)n1c(=O)n(C)c2nnc3cc(F)c(-c4ccc(OCCCN5CC[C@@H](F)C5)nc4)cc3c21 [US12226414, Example 15] | > 10 µM |
